From PubChem BioAssay (NCI)
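Tested at 5 concentrations; 48 h exposure; 96-well plates; endpoints linearly interpolated, else capped at highest concentration. The concentration for full growth arrest is given as TGI.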

Assays:
Assay in all cases: NCI anticancer screen, dose series, 48 h
786-0 renal = test system: 786-0 renal
A498 renal = test system: A498 renal
A549 NSCLC = test system: A549 NSCLC
ACHN renal = test system: ACHN renal
BT-549 breast = test system: BT-549 breast
CAKI-1 renal = test system: CAKI-1 renal
CCRF-CEM leukemia = test system: CCRF-CEM leukemia
COLO 205 colon = test system: COLO 205 colon
DU-145 prostate = test system: DU-145 prostate
EKVX NSCLC = test system: EKVX NSCLC
HCT-116 colon = test system: HCT-116 colon
HCT-15 colon = test system: HCT-15 colon
HL-60(TB) leukemia = test system: HL-60(TB) leukemia
HOP-62 NSCLC = test system: HOP-62 NSCLC
HOP-92 NSCLC = test system: HOP-92 NSCLC
HS 578T breast = test system: HS 578T breast
HT29 colon = test system: HT29 colon
IGROV1 ovarian = test system: IGROV1 ovarian
K-562 leukemia = test system: K-562 leukemia
KM12 colon = test system: KM12 colon
LOX IMVI melanoma = test system: LOX IMVI melanoma
M14 melanoma = test system: M14 melanoma
MALME-3M melanoma = test system: MALME-3M melanoma
MCF7 breast = test system: MCF7 breast
MDA-MB-231 breast = test system: MDA-MB-231 breast
MDA-MB-435 = test system: MDA-MB-435
MDA-N = test system: MDA-N
MOLT-4 leukemia = test system: MOLT-4 leukemia
NCI-H226 lung = test system: NCI-H226 lung
NCI-H460 lung = test system: NCI-H460 lung
NCI-H522 lung = test system: NCI-H522 lung
NCI/ADR-RES ovarian = test system: NCI/ADR-RES ovarian
OVCAR-3 ovarian = test system: OVCAR-3 ovarian
OVCAR-4 ovarian = test system: OVCAR-4 ovarian
OVCAR-5 ovarian = test system: OVCAR-5 ovarian
OVCAR-8 ovarian = test system: OVCAR-8 ovarian
PC-3 prostate = test system: PC-3 prostate
RPMI-8226 leukemia = test system: RPMI-8226 leukemia
SF-295 CNS = test system: SF-295 CNS
SF-539 CNS = test system: SF-539 CNS
SK-MEL-2 melanoma = test system: SK-MEL-2 melanoma
SK-MEL-28 melanoma = test system: SK-MEL-28 melanoma
SK-MEL-5 melanoma = test system: SK-MEL-5 melanoma
SK-OV-3 ovarian = test system: SK-OV-3 ovarian
SN12C renal = test system: SN12C renal
SNB-19 CNS = test system: SNB-19 CNS
SNB-75 CNS = test system: SNB-75 CNS
SR leukemia = test system: SR leukemia
SW-620 colon = test system: SW-620 colon
T-47D breast = test system: T-47D breast
TK-10 renal = test system: TK-10 renal
U251 CNS = test system: U251 CNS
UACC-257 melanoma = test system: UACC-257 melanoma
UACC-62 melanoma = test system: UACC-62 melanoma
UO-31 renal = test system: UO-31 renal
HCC-2998 colon = test system: HCC-2998 colon
NCI-H23 lung = test system: NCI-H23 lung
RXF 393 renal = test system: RXF 393 renal
SF-268 CNS = test system: SF-268 CNS

O=C(OCc1ccccc1)N1CCNCCNCCN(C(=O)OCc2ccccc2)CCNCC1
TGI (786-0 renal): 28.4 µM | TGI (A498 renal): 70.1 µM | TGI (A549 NSCLC): > 100 µM | TGI (ACHN renal): > 100 µM | TGI (BT-549 breast): > 100 µM | TGI (CAKI-1 renal): 73.8 µM | TGI (CCRF-CEM leukemia): 65.9 µM | TGI (COLO 205 colon): 26.8 µM | TGI (DU-145 prostate): > 100 µM | TGI (EKVX NSCLC): 65.1 µM | TGI (HCT-116 colon): 29.1 µM | TGI (HCT-15 colon): 50.1 µM | TGI (HL-60(TB) leukemia): 21.7 µM | TGI (HOP-62 NSCLC): > 100 µM | TGI (HOP-92 NSCLC): 46.7 µM | TGI (HS 578T breast): 44 µM | TGI (HT29 colon): 32.9 µM | TGI (IGROV1 ovarian): 91.3 µM | TGI (K-562 leukemia): 29.8 µM | TGI (KM12 colon): 70 µM | TGI (LOX IMVI melanoma): 30.8 µM | TGI (M14 melanoma): 30.4 µM | TGI (MALME-3M melanoma): 36.5 µM | TGI (MCF7 breast): 32 µM | TGI (MDA-MB-231 breast): 65.1 µM | TGI (MDA-MB-435): 29.6 µM | TGI (MDA-N): 31.3 µM | TGI (MOLT-4 leukemia): 38.9 µM | TGI (NCI-H226 lung): > 100 µM | TGI (NCI-H460 lung): 52.1 µM | TGI (NCI-H522 lung): 31.4 µM | TGI (NCI/ADR-RES ovarian): > 100 µM | TGI (OVCAR-3 ovarian): > 100 µM | TGI (OVCAR-4 ovarian): > 100 µM | TGI (OVCAR-5 ovarian): > 100 µM | TGI (OVCAR-8 ovarian): 32.8 µM | TGI (PC-3 prostate): > 100 µM | TGI (RPMI-8226 leukemia): 50.8 µM | TGI (SF-295 CNS): 33.7 µM | TGI (SF-539 CNS): 32.8 µM | TGI (SK-MEL-2 melanoma): 32.9 µM | TGI (SK-MEL-28 melanoma): 29.1 µM | TGI (SK-MEL-5 melanoma): 27.1 µM | TGI (SK-OV-3 ovarian): > 100 µM | TGI (SN12C renal): > 100 µM | TGI (SNB-19 CNS): > 100 µM | TGI (SNB-75 CNS): 53 µM | TGI (SR leukemia): 34.2 µM | TGI (SW-620 colon): 32.8 µM | TGI (T-47D breast): 41 µM | TGI (TK-10 renal): 67.2 µM | TGI (U251 CNS): 33.7 µM | TGI (UACC-257 melanoma): 32 µM | TGI (UACC-62 melanoma): 31.7 µM | TGI (UO-31 renal): 27.8 µM

NC(N)=NC1C(O)C(O)C(O)C(N=C(N)N)C1O (configuration not stated)
TGI (786-0 renal): > 100 µM | TGI (A498 renal): > 100 µM | TGI (A549 NSCLC): > 100 µM | TGI (ACHN renal): > 100 µM | TGI (BT-549 breast): > 100 µM | TGI (CAKI-1 renal): > 100 µM | TGI (CCRF-CEM leukemia): > 100 µM | TGI (COLO 205 colon): > 100 µM | TGI (DU-145 prostate): > 100 µM | TGI (EKVX NSCLC): > 100 µM | TGI (HCC-2998 colon): > 100 µM | TGI (HCT-116 colon): > 100 µM | TGI (HCT-15 colon): > 100 µM | TGI (HL-60(TB) leukemia): > 100 µM | TGI (HOP-62 NSCLC): > 100 µM | TGI (HOP-92 NSCLC): > 100 µM | TGI (HS 578T breast): > 100 µM | TGI (HT29 colon): > 100 µM | TGI (IGROV1 ovarian): > 100 µM | TGI (K-562 leukemia): > 100 µM | TGI (KM12 colon): > 100 µM | TGI (LOX IMVI melanoma): > 100 µM | TGI (M14 melanoma): > 100 µM | TGI (MALME-3M melanoma): > 100 µM | TGI (MCF7 breast): > 100 µM | TGI (MDA-MB-231 breast): > 100 µM | TGI (MDA-MB-435): > 100 µM | TGI (MDA-N): > 100 µM | TGI (MOLT-4 leukemia): > 100 µM | TGI (NCI-H23 lung): > 100 µM | TGI (NCI-H460 lung): > 100 µM | TGI (NCI-H522 lung): > 100 µM | TGI (NCI/ADR-RES ovarian): > 100 µM | TGI (OVCAR-3 ovarian): > 100 µM | TGI (OVCAR-4 ovarian): > 100 µM | TGI (OVCAR-5 ovarian): > 100 µM | TGI (OVCAR-8 ovarian): > 100 µM | TGI (PC-3 prostate): > 100 µM | TGI (RPMI-8226 leukemia): > 100 µM | TGI (RXF 393 renal): > 100 µM | TGI (SF-268 CNS): > 100 µM | TGI (SF-295 CNS): > 100 µM | TGI (SF-539 CNS): > 100 µM | TGI (SK-MEL-2 melanoma): > 100 µM | TGI (SK-MEL-28 melanoma): > 100 µM | TGI (SK-MEL-5 melanoma): > 100 µM | TGI (SK-OV-3 ovarian): > 100 µM | TGI (SN12C renal): > 100 µM | TGI (SNB-19 CNS): > 100 µM | TGI (SNB-75 CNS): > 100 µM | TGI (SR leukemia): > 100 µM | TGI (SW-620 colon): > 100 µM | TGI (T-47D breast): > 100 µM | TGI (TK-10 renal): > 100 µM | TGI (U251 CNS): > 100 µM | TGI (UACC-257 melanoma): > 100 µM | TGI (UACC-62 melanoma): > 100 µM | TGI (UO-31 renal): > 100 µM

Cc1ccccc1NC(=O)CC(=O)NNC(Sc1ccccc1)c1cc(N=Nc2ccc(Br)cc2)ccc1O (configuration not stated)
TGI (786-0 renal): > 10 µM | TGI (A498 renal): 7.96 µM | TGI (A549 NSCLC): > 10 µM | TGI (ACHN renal): > 10 µM | TGI (BT-549 breast): > 10 µM | TGI (CAKI-1 renal): > 10 µM | TGI (CCRF-CEM leukemia): > 10 µM | TGI (COLO 205 colon): > 10 µM | TGI (DU-145 prostate): > 10 µM | TGI (EKVX NSCLC): > 10 µM | TGI (HCC-2998 colon): > 10 µM | TGI (HCT-116 colon): 1.19 µM | TGI (HCT-15 colon): > 10 µM | TGI (HL-60(TB) leukemia): 0.907 µM | TGI (HOP-62 NSCLC): > 10 µM | TGI (HOP-92 NSCLC): > 10 µM | TGI (HS 578T breast): > 10 µM | TGI (HT29 colon): > 10 µM | TGI (IGROV1 ovarian): > 10 µM | TGI (K-562 leukemia): 7.56 µM | TGI (KM12 colon): > 10 µM | TGI (LOX IMVI melanoma): 9.11 µM | TGI (M14 melanoma): 2.63 µM | TGI (MALME-3M melanoma): > 10 µM | TGI (MCF7 breast): > 10 µM | TGI (MDA-MB-231 breast): 6.05 µM | TGI (MDA-MB-435): > 10 µM | TGI (MDA-N): > 10 µM | TGI (MOLT-4 leukemia): 3.1 µM | TGI (NCI-H226 lung): > 10 µM | TGI (NCI-H23 lung): > 10 µM | TGI (NCI-H460 lung): > 10 µM | TGI (NCI-H522 lung): > 10 µM | TGI (NCI/ADR-RES ovarian): 9.08 µM | TGI (OVCAR-3 ovarian): 4.91 µM | TGI (OVCAR-4 ovarian): > 10 µM | TGI (OVCAR-5 ovarian): > 10 µM | TGI (OVCAR-8 ovarian): 2.12 µM | TGI (PC-3 prostate): > 10 µM | TGI (RPMI-8226 leukemia): 9.06 µM | TGI (RXF 393 renal): > 10 µM | TGI (SF-268 CNS): > 10 µM | TGI (SF-295 CNS): > 10 µM | TGI (SF-539 CNS): 4.73 µM | TGI (SK-MEL-2 melanoma): > 10 µM | TGI (SK-MEL-28 melanoma): > 10 µM | TGI (SK-MEL-5 melanoma): 3.42 µM | TGI (SK-OV-3 ovarian): > 10 µM | TGI (SN12C renal): > 10 µM | TGI (SNB-19 CNS): > 10 µM | TGI (SNB-75 CNS): > 10 µM | TGI (SR leukemia): 4.07 µM | TGI (SW-620 colon): > 10 µM | TGI (T-47D breast): > 10 µM | TGI (TK-10 renal): > 10 µM | TGI (U251 CNS): > 10 µM | TGI (UACC-257 melanoma): > 10 µM | TGI (UACC-62 melanoma): 8.65 µM | TGI (UO-31 renal): > 10 µM
